What was measured:
Assay in all cases: Test C pre-/postemergence greenhouse test, plant response rating 0-100;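 on Plant response rating (0 to 100), Blackgrass: 0 is no effect and 100 is complete control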;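 on Plant response rating (0 to 100), Ragweed: 0 is no effect and 100 is complete control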;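 on Plant response rating, Blackgrass: 0 is no effect and 100 is complete control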;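 on Plant response rating, Ragweed: 0 is no effect and 100 is complete control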
Format in all cases: in vivo
[1] = tested on: blackgrass (Alopecurus myosuroides); details: Postemergence; for Plant response rating, Blackgrass: scale 0 to 100;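 on all read-outs here: 0 is no effect and 100 is complete control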
Procedure, shortened: (§1)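 Plants were scored visually against controls 13–15 days after treatment on a 0–100 scale, 100 meaning complete control. Test chemicals, formulated in surfactant-containing non-phytotoxic solvent, went preemergence onto seeds in loam–sand blend or postemergence onto 1- to 4-leaf plants (2–18 cm) grown in peat-based mix.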

[2] = tested on: corn (Zea mays); details: Postemergence
Procedure, shortened: as §1

[3] = tested on: galium (catchweed bedstraw, Galium aparine); details: Postemergence
Procedure, shortened: as §1

[4] = tested on: johnsongrass (Sorghum halepense); details: Postemergence
Procedure, shortened: as §1

[5] = tested on: lambsquarters (Chenopodium album); details: Postemergence
Procedure, shortened: as §1

[6] = tested on: large (Lg) crabgrass (Digitaria sanguinalis); details: Postemergence
Procedure, shortened: as §1

[7] = tested on: morningglory (Ipomoea coccinea); details: Postemergence
Procedure, shortened: as §1

[8] = tested on: pigweed (Amaranthus retroflexus); details: Postemergence
Procedure, shortened: as §1

[9] = tested on: ragweed (common ragweed, Ambrosia elatior); details: Postemergence;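 further: 0 is no effect and 100 is complete control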
Procedure, shortened: as §1

[10] = tested on: velvetleaf (Abutilon theophrasti); details: Postemergence
Procedure, shortened: as §1

[11] = tested on: winter wheat (Triticum aestivum); details: Postemergence
Procedure, shortened: as §1

[12] = tested on: yellow nutsedge (Cyperus esculentus); details: Postemergence
Procedure, shortened: as §1

O=C(c1ccccc1)c1cn(S(=O)(=O)CCl)nc1-c1cc(Cl)cc(Cl)c1 [Compound 1]
100: Plant response rating (0 to 100), Pigweed ([8]; 125 g ai/ha) | Plant response rating, Pigweed ([8]; 250 g ai/ha, scale 0 to 100)
85: Plant response rating (0 to 100), Lambsquarters ([5]; 125 g ai/ha) | Plant response rating, Lambsquarters ([5]; 250 g ai/ha, scale 0 to 100)
20: Plant response rating, Galium ([3]; 250 g ai/ha, scale 0 to 100)
10: Plant response rating, Nutsedge, Yellow ([12]; 250 g ai/ha, scale 0 to 100)
65: Plant response rating, Ragweed ([9]; 250 g ai/ha, scale 0 to 100)
80: Plant response rating, Velvetleaf ([10]; 250 g ai/ha, scale 0 to 100)
70: Plant response rating (0 to 100), Lambsquarters ([5]; 62 g ai/ha) | Plant response rating (0 to 100), Velvetleaf ([10]; 62 g ai/ha)
50: Plant response rating (0 to 100), Ragweed ([9]; 125 g ai/ha)
98: Plant response rating (0 to 100), Pigweed ([8]; 62 g ai/ha)
0: Plant response rating (0 to 100), Blackgrass ([1]; 31 g ai/ha) | Plant response rating (0 to 100), Blackgrass ([1]; 62 g ai/ha) | Plant response rating, Blackgrass ([1]; 125 g ai/ha) | Plant response rating, Blackgrass ([1]; 250 g ai/ha) | Plant response rating (0 to 100), Corn ([2]; 31 g ai/ha) | Plant response rating (0 to 100), Corn ([2]; 62 g ai/ha) | Plant response rating (0 to 100), Corn ([2]; 125 g ai/ha) | Plant response rating, Corn ([2]; 250 g ai/ha, scale 0 to 100) | Plant response rating (0 to 100), Galium ([3]; 31 g ai/ha) | Plant response rating (0 to 100), Galium ([3]; 62 g ai/ha) | Plant response rating (0 to 100), Galium ([3]; 125 g ai/ha) | Plant response rating (0 to 100), Johnsongrass ([4]; 62 g ai/ha) | Plant response rating (0 to 100), Johnsongrass ([4]; 125 g ai/ha) | Plant response rating, Johnsongrass ([4]; 250 g ai/ha, scale 0 to 100) | Plant response rating (0 to 100), Crabgrass, Large ([6]; 31 g ai/ha) | Plant response rating (0 to 100), Crabgrass, Large ([6]; 62 g ai/ha) | Plant response rating (0 to 100), Crabgrass, Large ([6]; 125 g ai/ha) | Plant response rating, Crabgrass, Large ([6]; 250 g ai/ha, scale 0 to 100) | Plant response rating (0 to 100), Morningglory ([7]; 62 g ai/ha) | Plant response rating (0 to 100), Morningglory ([7]; 125 g ai/ha) | Plant response rating, Morningglory ([7]; 250 g ai/ha, scale 0 to 100) | Plant response rating (0 to 100), Wheat ([11]; 62 g ai/ha) | Plant response rating (0 to 100), Wheat ([11]; 125 g ai/ha) | Plant response rating, Wheat ([11]; 250 g ai/ha, scale 0 to 100) | Plant response rating (0 to 100), Nutsedge, Yellow ([12]; 62 g ai/ha) | Plant response rating (0 to 100), Nutsedge, Yellow ([12]; 125 g ai/ha)
40: Plant response rating (0 to 100), Ragweed ([9]; 62 g ai/ha)
75: Plant response rating (0 to 100), Velvetleaf ([10]; 125 g ai/ha)

— patent US10167262B2, “Herbicidal substituted 3-arylpyrazoles” (FMC CORPORATION, priority 2014, dated 2019)
